According to ChEMBL document CHEMBL3045067, “-Amino butyric acid analogs as novel potent GABA-AT inhibitors: molecular docking, synthesis, and biological evaluation” (Med Chem Res, 2013):

biological target: 4-aminobutyrate aminotransferase, mitochondrial (Rattus norvegicus, UniProt P50554); assay: Inhibition of Rattus norvegicus (rat) brain gamma-amino butyrate aminotransferase using gamma-amino butyrate as substrate assessed as decrease in NADPH generation after 30 min by spectrophotometric analysis
Sequence (P50554 whole entry): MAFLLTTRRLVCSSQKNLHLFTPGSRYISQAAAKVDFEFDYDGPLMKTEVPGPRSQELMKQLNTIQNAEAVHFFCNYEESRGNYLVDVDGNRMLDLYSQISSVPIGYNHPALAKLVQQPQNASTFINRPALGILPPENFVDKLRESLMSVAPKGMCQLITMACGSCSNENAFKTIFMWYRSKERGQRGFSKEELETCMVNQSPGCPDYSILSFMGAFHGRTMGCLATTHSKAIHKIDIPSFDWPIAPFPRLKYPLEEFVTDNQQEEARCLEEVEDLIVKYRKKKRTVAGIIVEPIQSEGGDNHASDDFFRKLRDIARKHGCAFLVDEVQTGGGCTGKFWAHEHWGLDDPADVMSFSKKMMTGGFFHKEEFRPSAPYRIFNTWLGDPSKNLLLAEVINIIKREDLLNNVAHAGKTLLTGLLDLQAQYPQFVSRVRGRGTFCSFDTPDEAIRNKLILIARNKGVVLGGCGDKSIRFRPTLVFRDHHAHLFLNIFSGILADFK

Row | SMILES | IC50 [µM]
1 | NCCCC(=O)N/N=C(\c1ccccc1)c1ccc(Br)cc1 | 0.56
2 | O=C(O)CCCN=C(/C=C/c1ccccc1)/C=C/c1ccccc1 | 9.95
3 | CC12CCC(C1)C(C)(C)/C2=N\CCCC(=O)O (stereo not drawn) | 10
4 | O=C(O)CCC/N=C1/C(=O)c2ccccc2-c2ccccc21 | 15.5
5 | O=C(O)CCC/N=C1/C(=O)c2cccc3cccc1c23 | 16.8
6 | CC1CCCC/C1=N\CCCC(=O)O (stereo not drawn) | 20.8
7 | CC1CCC(C(C)C)/C(=N/CCCC(=O)O)C1 (stereo not drawn) | 20.8
8 | C=C(C)C1CC=C(C)/C(=N/CCCC(=O)O)C1 (stereo not drawn) | 23.5
9 | CC1=C/C(=N/CCCC(=O)O)CC(C)(C)C1 | 25.9
10 | CC1=CC(=O)C=C/C1=N\CCCC(=O)O | 30.1
11 | C/C(=N\CCCC(=O)O)c1ccc2ccccc2c1 | 44.1
12 | CCc1ccc2c(c1)/C(=N/c1cccc(C(=O)O)c1)c1ccccc1C2=O | 1.21
13 | O=C(O)c1cccc(/N=C2\C(=O)c3ccccc3-c3ccccc32)c1 | 2.78
14 | O=C(O)c1cccc(N=C2c3ccccc3C(=O)c3ccccc32)c1 | 4.96
15 | CC1=C(C)C(=Nc2cccc(C(=O)O)c2)C(C)=C(C)C1=O | 6.54

Now those with a lower IC50, led by results:

Row | IC50 [µM] | SMILES
16 | 0.28 | NCCCC(=O)N/N=C1\CCCc2ccccc21
17 | 0.3 | NCCCC(=O)N/N=C(/C(=O)c1ccccc1)c1ccccc1
18 | 0.24 | Nc1cccc(C(=O)N/N=C2/c3ccccc3C(=O)c3ccc(O)c(O)c32)c1
19 | 0.32 | C/C(=N/NC(=O)c1cccc(N)c1)c1cccc(Cl)c1
20 | 0.37 | Nc1cccc(C(=O)N/N=C(/c2ccccc2)c2ccc(Cl)cc2)c1
21 | 0.46 | Nc1cccc(C(=O)N/N=C2/c3ccccc3C(=O)c3ccc(Cl)cc32)c1
22 | 0.073 | C/C(=N/NC(=O)CCCN)c1ccccc1Br
23 | 0.091 | C/C(=N/NC(=O)CCCN)c1cccc(Cl)c1
24 | 0.11 | Cc1ccc2c(c1)/C(=N\NC(=O)CCCN)c1ccccc1C2=O
25 | 0.15 | NCCCC(=O)N/N=C/c1cccc(I)c1
26 | 0.13 | NCCCC(=O)N/N=C1\CCc2ccccc2C1
27 | 0.14 | NCCCC(=O)NN=C1c2ccccc2C(=O)c2ccccc21
28 | 0.2 | NCCCC(=O)N/N=C/c1ccccc1I
